Test results as given in patent US9334256B2, “Agents and methods for treating ischemic and other diseases” (NoNO INC., priority 2011, dated 2016).
“Also recorded” adds a separate entry of the source.

How the values were obtained:
TRPM7 ion channel = biological target: T1, TRPM7 ion channel (Mus musculus, UniProt Q923J1); assay: Whole-cell patch clamp of TRPM7 currents in HEK293 cells; assay type: cell-based; details: value shown = concentration at which the compound significantly inhibits the ion channel
T1 construct: expressed in transfected cells; host or cells: TRPM7-tet-on HEK293 cells
Protocol: To further understand the structure function relationships between the TRPM7 inhibitors identified in the TRPM7-dependent HEK death assay, the activity of a subset of these inhibitors described herein were tested for their ability to inhibit TRPM7 currents in cell systems. Whole-cell patch clamp recordings were used essentially as described to test the TRPM7 inhibitors in HEK293 cells, H9c2 cardiomyocytes and cultured neurons. […] Those that provide >10% inhibition of TRPM7 channel activity in the HEK293 cell system were labeled with the concentration tested (generally 5 uM). Thus, the compounds in this table marked with such a value are able to block the activity gof the TRPM7 ion channel. FIGS. 2A-C provide an example of this for the TRPM7 inhibitor 399 (Structure 9). […] Numbers in brackets indicate the number of independent tests, and the bars represent the SEM.
Whole-cell currents were recorded using an Axopatch 1D or MultiClamp 700B amplifier and were digitized at 10 kHz and low-pass filtered at 2 kHz, at room temperature. pClamp10 software was used for data acquisition and analysis. Patch electrodes were pulled from Borosilicate glass and fire polished to a resistance of 2-4 MΩ. All drugs were administrated directly to cell bodies under recording through the fast exchange perfusion system.
The intracellular solution (ICS) contains (mM) 145 Cs-methanesulfonate, 8 NaCl, l MgCl2, 4.1 CaCl2, 10 EGTA, and 10 HEPES, 5 ATP, pH at 7.4, with 300-305 mOsm. The extracellular solution (ECS) contains (mM) 140 NaCl, 5 KCl, 2 CaCl2, 20 HEPES, and 10 glucose, pH at 7.4 and with 315-320 mOsm.
Voltage stimuli lasting 250 ms were delivered at 5-s intervals with voltage ramps ranging from −100 to +100 mV. The current values at −80 mV and +80 mV on I-V curve represent the measures of inward and outward current respectively.
Table X and FIGS. 7-51 show screening data for several additional compounds that are variants of M5, M6 or M21. The synthesis of compounds of Table X and FIGS. 7-51 is shown in Appendices A-C. The compounds shown in FIGS. 7-51 can be related to the appropriate row of Table X by the compound number shown in the figures and in the first column of Table X. The compounds in Table X other than M5, M6 and M21 themselves, are believed to be novel. The Table provides a number identifying the compound, its structurer, molecular weight and its cluster (i.e., whether the compound resembles M5, M6 or M21). The three columns relations to PI uptake describe the results of screening the compounds in the type of assay from Example 1. […] The last two columns show an effect on proliferation of Weri retinoblastoma or HeLa cervical cancer cells. Inhibition of proliferation is a measure of anti-neoplastic activity. […] If no data is shown, no test was performed.

cancer cell lines = assay: Cell proliferation studies, cancer cell lines in general; assay type: cell-based; details: summary statement
Protocol: Cells were grown to 70% confluency, trypsinized, counted, and seeded in 96-well flat-bottom plates at a final concentration of 2.5×10^3-5.0×10^3 cells/well in growth media containing 5% FBS (Day 0). Other well sizes and cell densities were used successfully as well. Cells were allowed to incubate in growth media for 24 hours to allow for maximum adhesion. Treatment with the test agent began on Day 1 and continued for 72 hours either with or without retreatment. At the 72 hour time point, viable cell numbers are quantified by the CellTiter-Glo® cell viability assay as described above, or using standard MTT, SRB or BrDU assays. Experiments were repeated at least twice with the same concentrations to determine growth inhibitory activity. […] In an alternative format, this assay was used to screen potential TRPM7 inhibitory compounds at a fixed concentration, usually 5 or 10 uM. Alternatively, lower or higher concentrations were used. […] Thus, for the compounds in Table 1, all are potential anti-cancer agents. Some, like 399 and 509, are more general and may be effective against a wide range of cancers. Others, like 2785, are more specific and may be effective against a subset of cancers.
Data Collection—For the cell proliferation studies, data from each experiment was collected and expressed as % Cell Growth using the following calculation: % Cell Growth=(ftest/fvehicle)×100 Where ftest is the luminescent signal of the tested sample, and fvehicle is the luminescence of the vehicle in which the drug is dissolved (or appropriate measure for the other viability/proliferation measures). Dose response graphs and IC50 values were generated using standard software using the following variable slope equation: […]

[1] = tested on: rat brains subjected to concussive brain trauma; assay: Fluid percussion injury (FPI) model, TTC staining of brain sections; assay type: in vivo; details: applied prior to the injury or 1 hour after; 2-6 atm injury; FIG. 1
Protocol: Inhibitors of TRPM7 were tested for their ability to provide neuroprotection to rat brains subjected to concussive brain trauma using a rodent model of fluid percussion injury (FPI). FPI was performed as described in the literature using 350-370 g male Sprague Dawley rats (Charles River, St. Constant, Quebec, Canada). In brief, 24 h before injury, the animal was anesthetized using 2% halothane and 2:1 nitrous oxide:oxygen. A 4.8 mm craniotomy was made with its center between the bregma and lambda and between the sagittal suture and right temporal ridge. A modified Leur-loc fitting was attached over the craniotomy and cemented in place using Acron MC/R dental acrylic (GC America, Alsip, Ill.). The Leur-loc was filled with saline, and a small piece of gelfoam was inserted. The incision was sutured, and the animal was returned to its cage overnight if not used same day. The following day, the incision was reopened, cleaned, and the gelfoam was removed. […] Injury severity was recorded using an oscilloscope attached to a transducer, and by sectioning the brains and staining with 2,3,5-Triphenyltetrazolium chloride staining (TTC). […]
Likewise, TRPM7 inhibitors are also expected to provide neuroprotection to other types of brain injuries. […] TRPM7 inhibitors such as M21 were applied 1 hour after stretch injury and cells were assessed for survival by PI fluorescence 24 hours after the injury. […]

neurons = assay: Sublethal neuronal stretch injury model, survival by PI fluorescence; assay type: cell-based; details: applied 1 hour after stretch injury, PI fluorescence 24 hours after; FIG. 3
Protocol: Likewise, TRPM7 inhibitors are also expected to provide neuroprotection to other types of brain injuries. […] This model is described in Arundine et al, (J. Neurosci, 2004:8106-23). TRPM7 inhibitors such as M21 were applied 1 hour after stretch injury and cells were assessed for survival by PI fluorescence 24 hours after the injury. […] Thus, this assay can be predictive of in vivo efficacy.

[2] = tested on: rats subjected to lateral FPI; assay: Distance traveled and activity post FPI; assay type: in vivo, rat; details: FIG. 4B
Excerpt: Thus, M21 and TRPM7 inhibitors are effective treatments to reduce the damaging effects of neurotrauma, including concussions.

[3] = tested on: neurons, hepatocytes, cardiomyocytes, retina; assay: Survival after anoxia in cells and tissues; assay type: cell-based; details: summary statement

T1 sequence (Q923J1 whole entry): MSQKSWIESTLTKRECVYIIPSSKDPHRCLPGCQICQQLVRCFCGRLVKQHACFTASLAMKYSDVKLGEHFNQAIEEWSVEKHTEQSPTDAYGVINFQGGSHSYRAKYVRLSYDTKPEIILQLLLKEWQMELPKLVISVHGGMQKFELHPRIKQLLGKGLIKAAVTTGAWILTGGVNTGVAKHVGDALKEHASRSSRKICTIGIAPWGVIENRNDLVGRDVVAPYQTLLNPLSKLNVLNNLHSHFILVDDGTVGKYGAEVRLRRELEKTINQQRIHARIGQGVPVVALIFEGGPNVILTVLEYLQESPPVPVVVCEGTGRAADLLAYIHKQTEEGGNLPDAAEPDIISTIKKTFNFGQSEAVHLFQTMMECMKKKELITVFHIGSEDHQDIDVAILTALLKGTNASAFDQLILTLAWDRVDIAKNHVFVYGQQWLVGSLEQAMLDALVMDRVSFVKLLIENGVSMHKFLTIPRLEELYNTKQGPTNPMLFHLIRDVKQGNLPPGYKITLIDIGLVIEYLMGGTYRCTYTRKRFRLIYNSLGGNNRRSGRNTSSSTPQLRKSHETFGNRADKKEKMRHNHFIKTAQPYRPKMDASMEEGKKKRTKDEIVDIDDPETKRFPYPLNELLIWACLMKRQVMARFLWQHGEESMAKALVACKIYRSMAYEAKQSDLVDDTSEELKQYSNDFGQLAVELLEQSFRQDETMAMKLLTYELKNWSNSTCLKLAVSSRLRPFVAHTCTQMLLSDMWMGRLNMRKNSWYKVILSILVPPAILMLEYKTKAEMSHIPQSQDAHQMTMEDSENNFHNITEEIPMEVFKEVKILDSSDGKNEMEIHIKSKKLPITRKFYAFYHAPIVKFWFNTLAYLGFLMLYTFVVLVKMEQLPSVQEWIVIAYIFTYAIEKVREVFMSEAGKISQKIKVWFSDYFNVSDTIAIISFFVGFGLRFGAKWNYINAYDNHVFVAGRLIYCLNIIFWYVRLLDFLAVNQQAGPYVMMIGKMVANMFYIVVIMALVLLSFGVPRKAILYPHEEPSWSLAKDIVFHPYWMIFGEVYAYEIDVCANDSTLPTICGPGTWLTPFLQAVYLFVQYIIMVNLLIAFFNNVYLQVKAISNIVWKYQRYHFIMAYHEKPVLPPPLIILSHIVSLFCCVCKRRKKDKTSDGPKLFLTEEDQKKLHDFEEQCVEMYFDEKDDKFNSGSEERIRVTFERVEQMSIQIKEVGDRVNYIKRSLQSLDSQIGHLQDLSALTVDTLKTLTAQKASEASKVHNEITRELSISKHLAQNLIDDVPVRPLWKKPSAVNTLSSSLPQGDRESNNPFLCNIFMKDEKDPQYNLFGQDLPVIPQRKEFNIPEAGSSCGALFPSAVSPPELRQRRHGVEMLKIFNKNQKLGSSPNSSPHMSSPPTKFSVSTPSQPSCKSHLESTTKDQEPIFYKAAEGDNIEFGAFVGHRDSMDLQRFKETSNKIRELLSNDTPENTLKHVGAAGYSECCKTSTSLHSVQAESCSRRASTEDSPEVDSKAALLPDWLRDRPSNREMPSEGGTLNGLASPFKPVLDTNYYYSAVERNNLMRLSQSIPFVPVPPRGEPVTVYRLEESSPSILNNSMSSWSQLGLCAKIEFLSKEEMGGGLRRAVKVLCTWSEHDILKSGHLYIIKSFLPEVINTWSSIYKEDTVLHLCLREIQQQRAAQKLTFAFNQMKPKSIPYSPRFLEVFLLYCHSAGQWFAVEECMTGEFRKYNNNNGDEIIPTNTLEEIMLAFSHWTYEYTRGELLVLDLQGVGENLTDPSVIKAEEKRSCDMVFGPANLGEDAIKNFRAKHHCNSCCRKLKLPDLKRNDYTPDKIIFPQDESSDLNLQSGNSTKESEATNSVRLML

Cc1c(Cc2ccc(Cl)c(Cl)c2)c(=O)oc2cc(O)ccc12 [Compound M21]
TRPM7 current (TRPM7 ion channel): 5 μM (Those that provide >10% inhibition of TRPM7 channel activity in the HEK293 cell system were labeled with the concentration tested (generally 5 uM))
inhibition of proliferation of cancer cell lines (cancer cell lines): effective in inhibiting proliferation of a retinoblastoma cell line
protection of rat brains from fluid percussion-induced neuronal damage [1]: able to protect the brain from injuries sustained from concussive trauma; also recorded: significant protection
protection from cell death after stretch injury (neurons): can protect neurons from cell death due to stretch injuries; also recorded: increased protection from cell death
distance traveled and activity post FPI [2]: comparable to uninjured animals
survival after anoxia [3]: broadly effective in increasing survival after anoxia in various tissues
